27 compounds from patent US20090247559A1 (Exelixis, Inc., priority 2007, published 2009) can be followed below.

Assay [1] deals with CDC7 (Homo sapiens, UniProt O00311). The assay can be described thus: CDC7 inhibition, biochemical chemiluminescence assay (Kinase Glo, IC50 determination). The method in brief:
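CDC7 enzyme preincubated with compound 10 min at ambient temperature, then ATP mix in Tris Base added; reaction 90 min at 24-27 °C. Remaining ATP quantified by Kinase Glo luminescence to give IC50.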
In general terms: Kinase-Glo reads ATP consumption through a luciferase reaction.

The target of assay [2] is PIM (PIM-1, PIM-2, and/or PIM-3). The assay can be described thus: PIM-1, PIM-2 and PIM-3 inhibition, biochemical chemiluminescence assays (Kinase Glo, IC50 determination). Particulars: Table 1 activity class; PIM refers to PIM-1, PIM-2, and/or PIM-3; read-out: PIM IC50 (Activity B).
The target of assay [3] is CK2 (Homo sapiens, UniProt P68400). Briefly: CK2 inhibition, biochemical chemiluminescence holoenzyme assay (Kinase Glo, IC50 determination). The following applies: Table 1 activity class; symbol given only if active; read-out: CK2 IC50 (Activity C). The method in brief:
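Holoenzyme CK2 assay; compounds pre-incubated with substrate and enzyme, then reacted 150 min at 24-27° C. Remaining ATP measured as luminescence with Kinase Glo, and IC50 derived from the signal.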

Where [4] appears, read: Table 1 activity class, symbol given only if active, read-out: CDC7 IC50 (Activity A).
Setting [5] is: compounds in Table 1, read-out: CDC7 IC50 value.

Where a name gives a salt, the structure may show the parent alone. Read-outs that look alike come from different tables or passages of the source.

Sequence of CK2 (P68400 whole entry): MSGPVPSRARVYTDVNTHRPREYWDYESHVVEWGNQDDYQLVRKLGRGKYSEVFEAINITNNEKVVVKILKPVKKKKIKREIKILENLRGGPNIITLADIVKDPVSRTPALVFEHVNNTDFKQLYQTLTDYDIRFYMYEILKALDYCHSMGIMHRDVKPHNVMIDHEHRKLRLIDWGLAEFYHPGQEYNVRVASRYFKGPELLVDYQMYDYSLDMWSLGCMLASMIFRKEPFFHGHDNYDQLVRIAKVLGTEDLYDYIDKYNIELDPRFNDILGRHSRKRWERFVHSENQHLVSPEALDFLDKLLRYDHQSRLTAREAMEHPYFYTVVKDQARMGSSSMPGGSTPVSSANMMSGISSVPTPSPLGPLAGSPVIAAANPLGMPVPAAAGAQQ
Sequence of CK2 (P67870 whole entry partner): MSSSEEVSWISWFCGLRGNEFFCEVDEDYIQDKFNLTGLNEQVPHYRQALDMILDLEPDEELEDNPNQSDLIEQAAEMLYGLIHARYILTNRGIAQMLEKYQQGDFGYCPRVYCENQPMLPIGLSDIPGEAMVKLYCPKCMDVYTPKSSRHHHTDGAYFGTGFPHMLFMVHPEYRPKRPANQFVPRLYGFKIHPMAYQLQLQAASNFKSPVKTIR
Sequence of CDC7 (O00311 whole entry): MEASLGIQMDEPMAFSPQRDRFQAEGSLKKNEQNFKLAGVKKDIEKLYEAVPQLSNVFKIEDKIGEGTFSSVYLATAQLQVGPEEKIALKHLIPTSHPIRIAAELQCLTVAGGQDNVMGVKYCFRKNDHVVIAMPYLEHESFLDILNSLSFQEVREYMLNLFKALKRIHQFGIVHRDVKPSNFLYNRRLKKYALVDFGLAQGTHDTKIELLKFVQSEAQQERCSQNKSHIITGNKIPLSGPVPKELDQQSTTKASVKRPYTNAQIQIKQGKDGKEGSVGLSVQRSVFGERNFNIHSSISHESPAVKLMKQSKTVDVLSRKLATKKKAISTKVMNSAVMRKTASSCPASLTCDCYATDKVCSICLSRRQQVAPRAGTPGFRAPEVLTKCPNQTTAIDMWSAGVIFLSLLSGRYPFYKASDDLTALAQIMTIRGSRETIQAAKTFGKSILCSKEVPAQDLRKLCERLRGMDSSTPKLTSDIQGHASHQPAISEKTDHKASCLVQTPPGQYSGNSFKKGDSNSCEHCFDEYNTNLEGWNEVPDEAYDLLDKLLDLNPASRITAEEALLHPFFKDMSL
Sequence of CDC7 (Q9UBU7 whole entry partner): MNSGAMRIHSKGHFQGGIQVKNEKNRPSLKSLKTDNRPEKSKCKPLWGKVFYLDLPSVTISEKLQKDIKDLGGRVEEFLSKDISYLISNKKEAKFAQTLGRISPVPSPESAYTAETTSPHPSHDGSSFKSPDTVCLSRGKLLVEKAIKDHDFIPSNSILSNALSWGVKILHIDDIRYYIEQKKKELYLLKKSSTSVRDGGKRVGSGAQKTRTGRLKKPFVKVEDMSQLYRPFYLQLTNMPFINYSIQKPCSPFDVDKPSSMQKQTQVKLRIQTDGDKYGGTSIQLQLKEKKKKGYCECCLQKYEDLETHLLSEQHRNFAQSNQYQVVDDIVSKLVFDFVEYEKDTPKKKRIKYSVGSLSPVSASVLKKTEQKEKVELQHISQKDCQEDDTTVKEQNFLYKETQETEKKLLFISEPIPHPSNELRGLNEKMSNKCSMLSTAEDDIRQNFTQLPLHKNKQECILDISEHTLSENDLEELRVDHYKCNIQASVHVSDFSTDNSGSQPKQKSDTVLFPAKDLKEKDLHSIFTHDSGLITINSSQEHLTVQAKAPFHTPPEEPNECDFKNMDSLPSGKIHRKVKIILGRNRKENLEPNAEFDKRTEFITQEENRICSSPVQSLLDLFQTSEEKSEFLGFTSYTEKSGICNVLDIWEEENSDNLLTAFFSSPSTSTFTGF

Broadly, the IC50 is the concentration needed to halve the response being measured. For `O=C(Nc1ccc(-c2nc3c(oc4ccc(Br)cc43)c(=O)[nH]2)c(Cl)c1)c1ccncc1` [Compound 143, N-[4-(8-bromo-4-oxo-3,4-dihydro[1]benzofuro[3,2-d]pyrimidin-2-yl)-3-chlorophenyl]pyridine-4-carboxamide], the IC50 in assay [1] (setting [4]), in assay [2] and in assay [3] was below 10 µM in each case.

With `COc1ccc2oc3c(=O)[nH]c(-c4ccc(F)cc4Cl)nc3c2c1` [Compound 144, 2-(2-chloro-4-fluorophenyl)-8-(methyloxy)[1]benzofuro[3,2-d]pyrimidin-4(3H)-one], the IC50 in assay [1] (setting [4]), in assay [2] and in assay [3] was below 10 µM each time.

On to `O=c1[nH]c(N2CCOCC2)nc2c1oc1ccc(Br)cc12` [Compound 147, 8-bromo-2-morpholin-4-yl[1]benzofuro[3,2-d]pyrimidin-4(3H)-one], for which the IC50 in assay [1] (setting [4]) was below 10 µM; in assay [1] (setting [5]), below 0.1 µM; in assay [2], below 10 µM; in assay [3], below 10 µM.

Regarding `O=c1[nH]c(-c2cnccc2Cl)nc2c1oc1ccc(Br)cc12` [Compound 148, 8-bromo-2-(4-chloropyridin-3-yl)[1]benzofuro[3,2-d]pyrimidin-4(3H)-one], the IC50 in assay [1] (setting [4]), in assay [2] and in assay [3] was below 10 µM each time.

As to `CC(C)C(c1nc2c(oc3ccc(Br)cc32)c(=O)[nH]1)N1CCCC1` (stereo not shown) [Compound 153, 8-Bromo-2-(2-methyl-1-pyrrolidin-1-ylpropyl)[1]benzofuro[3,2-d]pyrimidin-4(3H)-one], the IC50 in assay [1] (setting [4]), in assay [2] and in assay [3] was below 10 µM each time.

As to `O=c1[nH]c(-c2ccc(NCC3CCNC3)cc2Cl)nc2c1oc1ccc(Br)cc12` (stereo not shown) [Compound 154, 8-bromo-2-{2-chloro-4-[(pyrrolidin-3-ylmethyl)amino]phenyl}[1]benzofuro[3,2-d]pyrimidin-4(3H)-one], the IC50 in assay [1] (setting [4]), in assay [2] and in assay [3] was below 10 µM each time.

With `O=c1[nH]c(-c2ccc(NCCC3CCCNC3)cc2Cl)nc2c1oc1ccc(Br)cc12` (stereo not shown) [Compound 155, 8-bromo-2-{2-chloro-4-[(2-piperidin-3-ylethyl)amino]phenyl}[1]benzofuro[3,2-d]pyrimidin-4(3H)-one], the IC50 in assay [1] (setting [4]), in assay [2] and in assay [3] was below 10 µM in each case.

In the case of `O=c1[nH]c(C2CCNCC2)nc2c1oc1ccc(Br)cc12` [Compound 157, 8-bromo-2-piperidin-4-yl[1]benzofuro[3,2-d]pyrimidin-4(3H)-one], the IC50 is below 10 µM in assay [1] (setting [4]), below 0.1 µM in assay [1] (setting [5]), below 10 µM in assay [2] and below 10 µM in assay [3].

Take `O=c1[nH]c(C2CCCNC2)nc2c1oc1ccc(Br)cc12` (stereo not shown) [Compound 158, 8-Bromo-2-piperidin-3-yl[1]benzofuro[3,2-d]pyrimidin-4(3H)-one]: the IC50 was below 10 µM in assay [1] (setting [4]), below 0.1 µM in assay [1] (setting [5]), below 10 µM in assay [2] and below 10 µM in assay [3].

With `CN(C)CCCC(=O)Nc1ccc(-c2nc3c(oc4ccc(Br)cc43)c(=O)[nH]2)c(Cl)c1` [Compound 160, N-[4-(8-bromo-4-oxo-3,4-dihydro[1]benzofuro[3,2-d]pyrimidin-2-yl)-3-chlorophenyl]-4-(dimethylamino)butanamide], the IC50 in assay [1] (setting [4]), in assay [2] and in assay [3] was below 10 µM in each case.

As to `O=C(Nc1ccc(-c2nc3c(oc4ccc(Br)cc43)c(=O)[nH]2)c(Cl)c1)C1CCNCC1` [Compound 161, N-[4-(8-bromo-4-oxo-3,4-dihydro[1]benzofuro[3,2-d]pyrimidin-2-yl)-3-chlorophenyl]piperidine-4-carboxamide], the IC50 in assay [1] (setting [4]), in assay [2] and in assay [3] was below 10 µM in each case.

Take `O=c1[nH]c(CNCCc2ccncc2)nc2c1oc1ccc(Br)cc12` [Compound 166, 8-bromo-2-{[(2-pyridin-4-ylethyl)amino]methyl}[1]benzofuro[3,2-d]pyrimidin-4(3H)-one]: the IC50 in assay [1] (setting [4]) was below 10 µM; in assay [1] (setting [5]), below 0.1 µM; in assay [2], below 10 µM; in assay [3], below 10 µM.

`O=c1[nH]c(C2CCCN2)nc2c1oc1ccc(Br)cc12` (stereo not shown) [Compound 169, 8-bromo-2-pyrrolidin-2-yl[1]benzofuro[3,2-d]pyrimidin-4(3H)-one]: the IC50 in assay [1] (setting [4]) is below 10 µM; in assay [1] (setting [5]), below 0.1 µM; in assay [2], below 10 µM; in assay [3], below 10 µM.

As to `Nc1cc(-c2nc3c(oc4ccc(Br)cc43)c(=O)[nH]2)c(Cl)cn1` [Compound 173, 2-(2-amino-5-chloropyridin-4-yl)-8-bromo[1]benzofuro[3,2-d]pyrimidin-4(3H)-one], the IC50 in assay [1] (setting [4]) is below 10 µM; in assay [1] (setting [5]), below 0.1 µM; in assay [2], below 10 µM; in assay [3], below 10 µM.

On to `NC(c1ccccc1)c1nc2c(oc3ccc(Br)cc32)c(=O)[nH]1` (stereo not shown) [Compound 174, 2-[amino(phenyl)methyl]-8-bromo[1]benzofuro[3,2-d]pyrimidin-4(3H)-one], for which the IC50 was below 10 µM in assay [1] (setting [4]), below 0.1 µM in assay [1] (setting [5]), below 10 µM in assay [2] and below 10 µM in assay [3].

For the compound `CC(N)c1nc2c(oc3ccc(Br)cc32)c(=O)[nH]1` (stereo not shown) [Compound 175, 2-(1-aminoethyl)-8-bromo[1]benzofuro[3,2-d]pyrimidin-4(3H)-one], the IC50 in assay [1] (setting [4]) is below 10 µM; in assay [1] (setting [5]) it was below 0.1 µM; in assay [2], below 10 µM; in assay [3], below 10 µM.

Take `O=C(Nc1ccc(-c2nc3c(oc4ccc(Br)cc43)c(=O)[nH]2)c(Cl)c1)C1CCNC1` (stereo not shown) [Compound 178, N-[4-(8-bromo-4-oxo-3,4-dihydro[1]benzofuro[3,2-d]pyrimidin-2-yl)-3-chlorophenyl]pyrrolidine-3-carboxamide]: the concentration for half-maximal inhibition (IC50) in assay [1] (setting [4]), in assay [2] and in assay [3] was below 10 µM throughout.

With `O=C(Cc1c[nH]cn1)Nc1ccc(-c2nc3c(oc4ccc(Br)cc43)c(=O)[nH]2)c(Cl)c1` [Compound 182, N-[4-(8-bromo-4-oxo-3,4-dihydro[1]benzofuro[3,2-d]pyrimidin-2-yl)-3-chlorophenyl]-2-(1H-imidazol-4-yl)acetamide], the IC50 in assay [1] (setting [4]), in assay [2] and in assay [3] was below 10 µM throughout.

On to `CN1CCCC(c2nc3c(oc4ccc(Br)cc43)c(=O)[nH]2)C1` (stereo not shown) [Compound 184, dihydrochloride], for which the IC50 is below 10 µM in assay [1] (setting [4]), below 0.1 µM in assay [1] (setting [5]), below 10 µM in assay [2] and below 10 µM in assay [3].

Turning to `CN1CCC(c2nc3c(oc4ccc(Br)cc43)c(=O)[nH]2)CC1` [Compound 185, 8-Bromo-2-(1-methylpiperidin-4-yl)[1]benzofuro[3,2-d]pyrimidin-4(3H)-one], the IC50 in assay [1] (setting [4]) is below 10 µM; in assay [1] (setting [5]), below 0.1 µM; in assay [2] it was below 10 µM; in assay [3], below 10 µM.

`O=c1[nH]c(C2CCNC2)nc2c1oc1ccc(Br)cc12` (stereo not shown) [Compound 186, 8-bromo-2-pyrrolidin-3-yl[1]benzofuro[3,2-d]pyrimidin-4(3H)-one]: the IC50 is below 10 µM in assay [1] (setting [4]), below 0.1 µM in assay [1] (setting [5]), below 10 µM in assay [2] and below 10 µM in assay [3].

On to `CC(C)(NCc1nc2c(oc3ccc(Br)cc32)c(=O)[nH]1)C(=O)O` [Compound 189, N-[(8-bromo-4-oxo-3,4-dihydro[1]benzofuro[3,2-d]pyrimidin-2-yl)methyl]-2-methylalanine], for which the IC50 in assay [1] (setting [4]), in assay [2] and in assay [3] was below 10 µM throughout.

Turning to `CC(C)(CN1CCCCC1)NCc1nc2c(oc3ccc(Br)cc32)c(=O)[nH]1` [Compound 191, 8-bromo-2-{[(1,1-dimethyl-2-piperidin-1-ylethyl)amino]methyl}[1]benzofuro[3,2-d]pyrimidin-4(3H)-one], the IC50 in assay [1] (setting [4]) was below 10 µM; in assay [1] (setting [5]), below 0.1 µM; in assay [2], below 10 µM; in assay [3], below 10 µM.

Regarding `O=c1[nH]c(CC2CCCNC2)nc2c1oc1ccc(Br)cc12` (stereo not shown) [Compound 194, 8-bromo-2-(piperidin-3-ylmethyl)[1]benzofuro[3,2-d]pyrimidin-4(3H)-one], the IC50 in assay [1] (setting [4]), in assay [2] and in assay [3] was below 10 µM each time.

`NCc1nc2c(oc3ccc(Br)cc32)c(=O)[nH]1` [Compound 195, 2-(aminomethyl)-8-bromo[1]benzofuro[3,2-d]pyrimidin-4(3H)-one]: the IC50 in assay [1] (setting [4]), in assay [2] and in assay [3] was below 10 µM throughout.

`O=c1[nH]c(-c2ccc(NCCC3CCNCC3)cc2Cl)nc2c1oc1ccc(Br)cc12` [Compound 197, 8-bromo-2-{2-chloro-4-[(2-piperidin-4-ylethyl)amino]phenyl}[1]benzofuro[3,2-d]pyrimidin-4(3H)-one]: the IC50 in assay [1] (setting [4]), in assay [2] and in assay [3] was below 10 µM throughout.

As to `O=c1[nH]c(C2CNC2)nc2c1oc1ccc(Br)cc12` [Compound 198, 2-Azetidin-3-yl-8-bromo[1]benzofuro[3,2-d]pyrimidin-4(3H)-one], the IC50 is below 10 µM in assay [1] (setting [4]), below 0.1 µM in assay [1] (setting [5]), below 10 µM in assay [2] and below 10 µM in assay [3].
